Results on eleven compounds are retold here after ChEMBL document CHEMBL1201862, “PubChem BioAssay data set” (2004).

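Tested at 5 concentrations; 48 h exposure; 96-well plates; endpoints linearly interpolated, else capped at highest concentration. GI50: concentration for 50% inhibition of growth.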 Activity calls are given as the source filed them. Cut-off read from the data, not from the text of the source: active = GI50 up to about 1.1 µM and inactive = higher.

Holding throughout (assay): inhibition of tumour cell growth, NCI panel, 48 h
Assay [1] has as its system UACC-257.
The test system of assay [2] is NCI-H460.
Assay [3] relates to SR.
The subject of assay [4] is MOLT-4.
Assay [5] has as its system KM12.
For assay [6], the system named is HCT-116.
The subject of assay [7] is UACC-62.
Assay [8] relates to HCT-15.
Assay [9] deals with 786-0.
Assay [10] deals with T47D.
In assay [11] the test system is CCRF-CEM.
Assay [12] has as its system PC-3.
The test system of assay [13] is K562.
Assay [14] has as its system IGROV-1.
Assay [15] has as its system Hs-578T.
Assay [16] deals with HT-29.
The subject of assay [17] is SN12C.
Assay [18] concerns OVCAR-5.
For assay [19], the system named is SNB-75.

Consider `CC(C)=CCN1c2ccccc2[C@@]2(CC=C(C)C)CCN(C)[C@@H]12` [(+)-DEBROMOFLUSTRAMINE B], for which the GI50 is > 10 µM (inactive) in assay [1]; 14.8 µM (inactive) in [2]; 33.4 µM (inactive) in assay [3]; 25.6 µM (inactive) in [4]; 24.5 µM (inactive) in assay [5]; 23.6 µM (inactive) in assay [6]. Further, the GI50 in assay [7] is 15.7 µM (inactive); in [8] it was 25.6 µM; in assay [9] it was 19.2 µM (inactive); in assay [10] it was 20.7 µM (inactive); in [11], 34.2 µM (inactive); in [12], 27 µM (inactive). For the same compound, the GI50 in assay [13] is 19.6 µM (inactive); in assay [14], 21.6 µM (inactive); in [15], 22 µM (inactive); in assay [16], 19.5 µM (inactive); in assay [17], 27.4 µM (inactive); in assay [18], > 100 µM (inactive). In addition, in [19], the GI50 was 26.1 µM (inactive).

Turning to `CCCCCCCCCCC(C(=O)O)C1(C(=O)O)CCC(=O)O1` (centres undefined), the GI50 in assay [1], in assay [2], in assay [3], in assay [4], in assay [5] and in [6] was > 100 µM (inactive) in each case. Moreover, the GI50 in [7] is > 100 µM (inactive); in [8] it was more than 100 µM; in assay [9] it was > 100 µM (inactive); in assay [10], > 100 µM (inactive); in assay [11] it was > 100 µM (inactive); in [12], > 100 µM (inactive). The GI50 in assay [13], in assay [14], in assay [15], in assay [16], in [17] and in [18] was > 100 µM (inactive) each time. Besides, in assay [19], the GI50 is > 100 µM (inactive).

For the compound `CCCCc1c(O)nc(Nc2nc3ccccc3[nH]2)[nH]c1=O`, the GI50 in assay [1], in [2], in assay [3], in assay [4], in assay [5] and in assay [6] was > 100 µM (inactive) each time. Also, the GI50 is > 100 µM (inactive) in [7]; more than 100 µM in [8]; > 100 µM (inactive) in [9]; > 100 µM (inactive) in [10]; > 100 µM (inactive) in [11]; > 100 µM (inactive) in [12]. Also, the GI50 in [13] was > 100 µM (inactive); in assay [14], > 100 µM (inactive); in [15], 23.3 µM (inactive); in assay [16] it was > 100 µM (inactive); in assay [17] it was > 100 µM (inactive); in assay [18], > 100 µM (inactive). Besides, the GI50 in [19] was > 100 µM (inactive).

On to `Cc1cc(N)ccc1/N=N\c1ccc(S(=O)(=O)CCOS(=O)(=O)O)cc1`, for which the GI50 in assay [1] was 11.1 µM (inactive); in [2], 3.44 µM (inactive); in assay [3] it was 0.488 µM (active); in [4] it was 0.23 µM (active); in assay [5], 2.87 µM (inactive); in [6], 0.34 µM (active). For the same compound, the GI50 in assay [7] was 1.57 µM (inactive); in [8], 0.346 µM; in assay [9], 0.414 µM (active); in assay [10], 12.2 µM (inactive); in assay [11] it was 0.382 µM (active); in [12] it was 0.292 µM (active). In addition, the GI50 in assay [13] was 0.352 µM (active); in [14] it was 0.713 µM (active); in [15] it was 5.08 µM (inactive); in assay [16], 0.767 µM (active); in assay [17] it was 0.463 µM (active); in assay [18], 20.3 µM (inactive). In addition, in assay [19], the GI50 is 1.04 µM (active).

`CSc1ccc(/C=C2\N=C(c3ccccc3)N(/N=C/c3cc4cc(C)ccc4nc3Cl)C2=O)cc1`: the GI50 is 19.4 µM (inactive) in assay [1]; 20.7 µM (inactive) in [2]; 12.1 µM (inactive) in assay [3]; 13.5 µM (inactive) in [4]; 14.3 µM (inactive) in assay [5]; 13.6 µM (inactive) in assay [6]. Besides, the GI50 is 15.6 µM (inactive) in assay [7]; 23.3 µM in assay [8]; 17.9 µM (inactive) in [9]; 22.9 µM (inactive) in [10]; 12 µM (inactive) in assay [11]; 16.9 µM (inactive) in assay [12]. In addition, the GI50 is 22 µM (inactive) in assay [13]; 14.3 µM (inactive) in assay [14]; 23.1 µM (inactive) in assay [15]; 23.1 µM (inactive) in assay [16]; 17.7 µM (inactive) in assay [17]; 22.9 µM (inactive) in assay [18]. The GI50 in [19] is 21.2 µM (inactive).

For the compound `COc1ccc(/C(Cl)=C(\CNc2ccccn2)c2ccccc2)cc1OC`, the GI50 in assay [1], in assay [2], in [3], in [4], in assay [5] and in [6] was > 100 µM (inactive) in each case. Moreover, the GI50 is > 100 µM (inactive) in [7]; more than 100 µM in assay [8]; > 100 µM (inactive) in assay [9]; > 100 µM (inactive) in [10]; > 100 µM (inactive) in assay [11]; > 100 µM (inactive) in assay [12]. In addition, the GI50 in assay [13], in [14], in [15], in [16], in assay [17] and in assay [18] was > 100 µM (inactive) each time. Also, the GI50 in [19] is > 100 µM (inactive).

Turning to `O=C(O)c1ccc(OCc2ccccc2)c(Cl)c1`, the GI50 is > 100 µM (inactive) in [1]; > 100 µM (inactive) in assay [2]; > 100 µM (inactive) in assay [3]; > 100 µM (inactive) in assay [4]; 30.3 µM (inactive) in [5]; > 100 µM (inactive) in assay [6]. The GI50 in [7] was > 100 µM (inactive); in assay [8], more than 100 µM; in [9], > 100 µM (inactive); in assay [10], > 100 µM (inactive); in assay [11], > 100 µM (inactive); in assay [12], > 100 µM (inactive). Further, the GI50 in assay [13], in [14], in assay [15], in assay [16], in assay [17] and in assay [18] was > 100 µM (inactive) in each case. Moreover, in assay [19], the GI50 was > 100 µM (inactive).

For `NNC(=O)Nc1nc2ccc(NN)cc2[nH]1`, the GI50 is 31.8 µM (inactive) in assay [1]; 27.4 µM (inactive) in assay [2]; 19.5 µM (inactive) in assay [3]; 11.6 µM (inactive) in assay [4]; 19.5 µM (inactive) in assay [5]; 32.8 µM (inactive) in assay [6]. Besides, the GI50 in assay [7] is 21.1 µM (inactive); in [8] it was 31.3 µM; in assay [9], 31.3 µM (inactive); in assay [10] it was 26.4 µM (inactive); in assay [11], 14.6 µM (inactive); in assay [12], 34.4 µM (inactive). Also, the GI50 in assay [13] was 18.7 µM (inactive); in assay [14], 42 µM (inactive); in assay [15], 33.7 µM (inactive); in assay [16] it was 34.5 µM (inactive); in assay [17], 42.2 µM (inactive); in assay [18], > 100 µM (inactive). In addition, the GI50 in [19] was 25.6 µM (inactive).

As for `O=[N+]([O-])c1ccc(N2N=C(c3c(O)ccc4ccccc34)CC2c2ccc(Cl)cc2)c([N+](=O)[O-])c1` (centres undefined), the GI50 in [1] was 37.1 µM (inactive); in assay [2] it was 29.9 µM (inactive); in assay [3] it was 6.97 µM (inactive); in assay [4], 10.1 µM (inactive); in assay [5], 5.65 µM (inactive); in assay [6], 15.3 µM (inactive). For the same compound, the GI50 in assay [7] was 7.13 µM (inactive); in assay [8], 14 µM; in [9] it was 27.9 µM (inactive); in [10] it was 32.6 µM (inactive); in assay [11] it was 11.1 µM (inactive); in [12] it was 6.4 µM (inactive). In addition, the GI50 in assay [13] is 5.28 µM (inactive); in assay [14], 22.1 µM (inactive); in assay [15], 27.4 µM (inactive); in assay [16], 20.1 µM (inactive); in [17], 33.4 µM (inactive); in [18], 17.1 µM (inactive). In addition, the GI50 in [19] is 12.2 µM (inactive).

Consider `C1CCCN(NC2=NCCO2)CC1`, for which the GI50 in assay [1], in assay [2], in [3], in assay [4], in [5] and in assay [6] was > 100 µM (inactive) each time. Moreover, the GI50 in [7] is > 100 µM (inactive); in assay [8] it was more than 100 µM; in assay [9], > 100 µM (inactive); in [10] it was > 100 µM (inactive); in assay [11] it was > 100 µM (inactive); in assay [12] it was > 100 µM (inactive). Further, the GI50 in assay [13], in [14], in assay [15], in [16], in [17] and in [18] was > 100 µM (inactive) throughout. Moreover, the GI50 in assay [19] was > 100 µM (inactive).

Turning to `NCCN(CCN)/[N+]([O-])=N/O`, the GI50 in assay [1] is > 100 µM (inactive); in [2], 69.3 µM (inactive); in [3], 91.2 µM (inactive); in assay [4], > 100 µM (inactive); in assay [5], > 100 µM (inactive); in assay [6], > 100 µM (inactive). Moreover, the GI50 in assay [7] was > 100 µM (inactive); in assay [8] it was more than 100 µM; in [9], > 100 µM (inactive); in assay [10], > 100 µM (inactive); in [11] it was 43.6 µM (inactive); in [12] it was > 100 µM (inactive). Also, the GI50 in [13] is 50.5 µM (inactive); in [14] it was > 100 µM (inactive); in assay [15], > 100 µM (inactive); in assay [16] it was > 100 µM (inactive); in [17], > 100 µM (inactive); in assay [18] it was > 100 µM (inactive). The GI50 in [19] is > 100 µM (inactive).
